# Measured values published in US5998488A, “Ophthalmic composition” (Lion Corporation, priority 1994, dated 1999).
# Like-named read-outs stand apart in the source and are kept apart here.
# Assays:
# [1] = Benzalkonium chloride adsorption test (soft contact lens Seequence); assay type: physicochemical; settings: benzalkonium chloride 0.01%, 25° C., 24 hours
# Experimental: (§1) A test was conducted to examine the inhibition of benzalkonium chloride adsorption to soft contact lenses. Solutions of the following formulation were prepared in a conventional manner as used in the preparation of eye drops.
# (§2) The percent inhibition of benzalkonium chloride adsorption to commercially available soft contact lenses was determined by the following test.
# (§3) Benzalkonium chloride adsorption test A 30-ml vial was charged with 10 ml of the solution and a soft contact lens was immersed therein. In a constant temperature tank at 25° C., the vial was shaken for 24 hours. After the contact lens was removed from the vial, the concentration of benzalkonium chloride in the solution was quantitatively determined by high performance liquid chromatography. A percent inhibition of adsorption was calculated according to the following formula.
# (§4) As a control, the above procedure was repeated except that no contact lens was immersed.
# (§5) Inhibition of adsorption (%)=(concentration of benzalkonium chloride in sample solution)/(concentration of benzalkonium chloride in control solution)×100
# (§6) Note that Seequence, Nichicon Soft and Menicon Soft are trademarks of soft contact lenses commercially available from Bausch & Lomb, Nihon Contact K.K., and Menicon K.K., respectively.
# [2] = Benzalkonium chloride adsorption test (soft contact lens Nichicon Soft μ); assay type: physicochemical; settings: benzalkonium chloride 0.01%, 25° C., 24 hours
# Experimental: as §1, §2, §3, §4, §5, §6
# [3] = Benzalkonium chloride adsorption test (soft contact lens Menicon Soft 72); assay type: physicochemical; settings: benzalkonium chloride 0.01%, 25° C., 24 hours
# Experimental: as §1, §2, §3, §4, §5, §6
# [4] = Benzalkonium chloride adsorption test (soft contact lenses, lens not given); assay type: physicochemical; settings: for Inhibition of adsorption, cyclodextrin in place of α-cyclodextrin (in words): α-cyclodextrin replaced by the other cyclodextrin
# Experimental: as §2, §3, §4, §5
# (§7) Solutions of the formulation shown in Table 7 were prepared to a total amount of 1,000 g in a conventional manner as used in the preparation of eye drops. Ophthalmic solutions of Examples 2 to 13 were obtained. The ophthalmic solutions were subject to the same tests as in Experiments 1 and 3. In the test of Experiment 3, the ophthalmic solutions were evaluated for antimicrobial activity according to the same criterion as before.
# [5] = assay type: physicochemical; settings: 6 months at 50° C.
# Experimental: […] More specifically, solutions were prepared in accordance with the formulation shown in Experiment 1 while the amount of α-cyclodextrin mixed was in the range of 0.03 to 2%.
# [6] = system: Escherichia coli (E. coli); experiment: Antimicrobial test (preservative effectiveness test, USP), E. coli; assay type: cell-based; settings: benzalkonium chloride 0.01%
# Experimental: (§8) The solutions of Experiment 1 were subject to an antimicrobial test.
# (§9) Using bacteria Escherichia coli (E. coli), Pseudomonas aeruginosa (P. aeru), and Stapyrococcus aureus (S. aureus) and fungi Aspergillus nigar (A. nigar) and Candida albicans (Candida) as infectious microorganisms, a preservative effectiveness test was carried out according to the Pharmacopoeia of the United States.
# (§10) ++: microorganisms died within 5 days
# (§11) +: microorganisms died in 6-10 days
# (§12) -:microorganisms died in 11-15 days or over 15 days
# [7] = system: Pseudomonas aeruginosa (P. aeru); experiment: Antimicrobial test (preservative effectiveness test, USP), P. aeru; assay type: cell-based; settings: benzalkonium chloride 0.01%
# Experimental: as §8, §9, §10, §11, §12
# [8] = system: Stapyrococcus aureus (S. aureus); experiment: Antimicrobial test (preservative effectiveness test, USP), S. aureus; assay type: cell-based; settings: benzalkonium chloride 0.01%
# Experimental: as §8, §9, §10, §11, §12
# [9] = system: Aspergillus nigar (A. nigar); experiment: Antimicrobial test (preservative effectiveness test, USP), A. nigar; assay type: cell-based; settings: benzalkonium chloride 0.01%
# Experimental: as §8, §9, §10, §11, §12
# [10] = system: Candida albicans (Candida); experiment: Antimicrobial test (preservative effectiveness test, USP), Candida; assay type: cell-based; settings: benzalkonium chloride 0.01%
# Experimental: as §8, §9, §10, §11, §12
# [11] = system: E. coli, P. aeru, S. aureus, A. nigar, Candida; experiment: Antimicrobial test (preservative effectiveness test, USP), microorganism type not specified; assay type: cell-based; settings: α-cyclodextrin 0.03% or more
# Experimental: as §9, §10, §11, §12
# Solutions were prepared in accordance with the formulation shown in Experiment 1 in a conventional manner as used in the preparation of eye drops while the amount of disodium ethylenediaminetetraacetate (EDTA-2Na) blended was in the range of 0.002 to 0.3%. The solutions were subject to the antimicrobial test of Experiment 3 and evaluated for antimicrobial activity according to the same criterion as above.
# Solutions of the following formulation were prepared in a conventional manner as used in the preparation of eye drops.
# The solutions were subject to the antimicrobial test of Experiment 3 and evaluated for antimicrobial activity according to the same criterion as above.
# as §7, with “Ophthalmic solutions of Examples 2 to 13 were obtained.” left out
molecule,measurement,setting,value
OC[C@H]1O[C@@H]2O[C@H]3[C@H](O)[C@@H](O)[C@@H](O[C@H]4[C@H](O)[C@@H](O)[C@@H](O[C@H]5[C@H](O)[C@@H](O)[C@@H](O[C@H]6[C@H](O)[C@@H](O)[C@@H](O[C@H]7[C@H](O)[C@@H](O)[C@@H](O[C@H]1[C@H](O)[C@H]2O)O[C@@H]7CO)O[C@@H]6CO)O[C@@H]5CO)O[C@@H]4CO)O[C@@H]3CO [α-cyclodextrin],Inhibition of adsorption,[1]; α-cyclodextrin 0.01%,88%
same,Inhibition of adsorption,[1]; α-cyclodextrin 0.02%,92%
same,Inhibition of adsorption,[1]; α-cyclodextrin 0.03%,100%
same,Inhibition of adsorption,[1]; α-cyclodextrin 0.05%,100%
same,Inhibition of adsorption,[1]; α-cyclodextrin 0.1%,100%
same,Inhibition of adsorption,[1]; α-cyclodextrin 0.2%,100%
same,Inhibition of adsorption,[1]; α-cyclodextrin 0.3%,100%
same,Inhibition of adsorption,[2]; α-cyclodextrin 0.01%,87%
same,Inhibition of adsorption,[2]; α-cyclodextrin 0.02%,93%
same,Inhibition of adsorption,[2]; α-cyclodextrin 0.03%,100%
same,Inhibition of adsorption,[2]; α-cyclodextrin 0.05%,100%
same,Inhibition of adsorption,[2]; α-cyclodextrin 0.1%,100%
same,Inhibition of adsorption,[2]; α-cyclodextrin 0.2%,100%
same,Inhibition of adsorption,[2]; α-cyclodextrin 0.3%,100%
same,Inhibition of adsorption,[3]; α-cyclodextrin 0.01%,88%
same,Inhibition of adsorption,[3]; α-cyclodextrin 0.02%,92%
same,Inhibition of adsorption,[3]; α-cyclodextrin 0.03%,100%
same,Inhibition of adsorption,[3]; α-cyclodextrin 0.05%,100%
same,Inhibition of adsorption,[3]; α-cyclodextrin 0.1%,100%
same,Inhibition of adsorption,[3]; α-cyclodextrin 0.2%,100%
same,Inhibition of adsorption,[3]; α-cyclodextrin 0.3%,100%
same,Inhibition of adsorption of benzalkonium chloride to soft contact lenses (in words),[4]; concentration of at least 0.03%,The inhibition effect is remarkable
same,Stability,[5]; α-cyclodextrin 0.03%,.largecircle.
same,Stability,[5]; α-cyclodextrin 0.5%,.largecircle.
same,Stability,[5]; α-cyclodextrin 1%,Δ
same,Antimicrobial activity,[6]; α-cyclodextrin 0.01%,+ (microorganisms died in 6-10 days)
same,Antimicrobial activity,[6]; α-cyclodextrin 0.02%,+ (microorganisms died in 6-10 days)
same,Antimicrobial activity,[6]; α-cyclodextrin 0.03%,- (microorganisms died in 11-15 days or over 15 days)
same,Antimicrobial activity,[6]; α-cyclodextrin 0.05%,- (microorganisms died in 11-15 days or over 15 days)
same,Antimicrobial activity,[6]; α-cyclodextrin 0.1%,- (microorganisms died in 11-15 days or over 15 days)
same,Antimicrobial activity,[6]; α-cyclodextrin 0.2%,- (microorganisms died in 11-15 days or over 15 days)
same,Antimicrobial activity,[6]; α-cyclodextrin 0.3%,- (microorganisms died in 11-15 days or over 15 days)
same,Antimicrobial activity,[7]; α-cyclodextrin 0.01%,+ (microorganisms died in 6-10 days)
same,Antimicrobial activity,[7]; α-cyclodextrin 0.02%,+ (microorganisms died in 6-10 days)
same,Antimicrobial activity,[7]; α-cyclodextrin 0.03%,- (microorganisms died in 11-15 days or over 15 days)
same,Antimicrobial activity,[7]; α-cyclodextrin 0.05%,- (microorganisms died in 11-15 days or over 15 days)
same,Antimicrobial activity,[7]; α-cyclodextrin 0.1%,- (microorganisms died in 11-15 days or over 15 days)
same,Antimicrobial activity,[7]; α-cyclodextrin 0.2%,- (microorganisms died in 11-15 days or over 15 days)
same,Antimicrobial activity,[7]; α-cyclodextrin 0.3%,- (microorganisms died in 11-15 days or over 15 days)
same,Antimicrobial activity,[8]; α-cyclodextrin 0.01%,+ (microorganisms died in 6-10 days)
same,Antimicrobial activity,[8]; α-cyclodextrin 0.02%,+ (microorganisms died in 6-10 days)
same,Antimicrobial activity,[8]; α-cyclodextrin 0.03%,- (microorganisms died in 11-15 days or over 15 days)
same,Antimicrobial activity,[8]; α-cyclodextrin 0.05%,- (microorganisms died in 11-15 days or over 15 days)
same,Antimicrobial activity,[8]; α-cyclodextrin 0.1%,- (microorganisms died in 11-15 days or over 15 days)
same,Antimicrobial activity,[8]; α-cyclodextrin 0.2%,- (microorganisms died in 11-15 days or over 15 days)
same,Antimicrobial activity,[8]; α-cyclodextrin 0.3%,- (microorganisms died in 11-15 days or over 15 days)
same,Antimicrobial activity,[9]; α-cyclodextrin 0.01%,+ (microorganisms died in 6-10 days)
same,Antimicrobial activity,[9]; α-cyclodextrin 0.02%,+ (microorganisms died in 6-10 days)
same,Antimicrobial activity,[9]; α-cyclodextrin 0.03%,- (microorganisms died in 11-15 days or over 15 days)
same,Antimicrobial activity,[9]; α-cyclodextrin 0.05%,- (microorganisms died in 11-15 days or over 15 days)
same,Antimicrobial activity,[9]; α-cyclodextrin 0.1%,- (microorganisms died in 11-15 days or over 15 days)
same,Antimicrobial activity,[9]; α-cyclodextrin 0.2%,- (microorganisms died in 11-15 days or over 15 days)
same,Antimicrobial activity,[9]; α-cyclodextrin 0.3%,- (microorganisms died in 11-15 days or over 15 days)
same,Antimicrobial activity,[10]; α-cyclodextrin 0.01%,+ (microorganisms died in 6-10 days)
same,Antimicrobial activity,[10]; α-cyclodextrin 0.02%,+ (microorganisms died in 6-10 days)
same,Antimicrobial activity,[10]; α-cyclodextrin 0.03%,- (microorganisms died in 11-15 days or over 15 days)
same,Antimicrobial activity,[10]; α-cyclodextrin 0.05%,- (microorganisms died in 11-15 days or over 15 days)
same,Antimicrobial activity,[10]; α-cyclodextrin 0.1%,- (microorganisms died in 11-15 days or over 15 days)
same,Antimicrobial activity,[10]; α-cyclodextrin 0.2%,- (microorganisms died in 11-15 days or over 15 days)
same,Antimicrobial activity,[10]; α-cyclodextrin 0.3%,- (microorganisms died in 11-15 days or over 15 days)
same,Antimicrobial activity of solution containing benzalkonium chloride (in words),[11],significantly reduced in antimicrobial activity
OC[C@H]1O[C@@H]2O[C@H]3[C@H](O)[C@@H](O)[C@@H](O[C@H]4[C@H](O)[C@@H](O)[C@@H](O[C@H]5[C@H](O)[C@@H](O)[C@@H](O[C@H]6[C@H](O)[C@@H](O)[C@@H](O[C@H]7[C@H](O)[C@@H](O)[C@@H](O[C@H]8[C@H](O)[C@@H](O)[C@@H](O[C@H]9[C@H](O)[C@@H](O)[C@@H](O[C@H]1[C@H](O)[C@H]2O)O[C@@H]9CO)O[C@@H]8CO)O[C@@H]7CO)O[C@@H]6CO)O[C@@H]5CO)O[C@@H]4CO)O[C@@H]3CO [γ-cyclodextrin],"Inhibition of adsorption, cyclodextrin in place of α-cyclodextrin (in words)",[4],Approximately equivalent results
OC[C@H]1O[C@@H]2O[C@H]3[C@H](O)[C@@H](O)[C@@H](O[C@H]4[C@H](O)[C@@H](O)[C@@H](O[C@H]5[C@H](O)[C@@H](O)[C@@H](O[C@H]6[C@H](O)[C@@H](O)[C@@H](O[C@H]7[C@H](O)[C@@H](O)[C@@H](O[C@H]8[C@H](O)[C@@H](O)[C@@H](O[C@H]9[C@H](O)[C@@H](O)[C@@H](O[C@H]%10[C@H](O)[C@@H](O)[C@@H](O[C@H]1[C@H](O)[C@H]2O)O[C@@H]%10CO)O[C@@H]9CO)O[C@@H]8CO)O[C@@H]7CO)O[C@@H]6CO)O[C@@H]5CO)O[C@@H]4CO)O[C@@H]3CO [δ-cyclodextrin],"Inhibition of adsorption, cyclodextrin in place of α-cyclodextrin (in words)",[4],Approximately equivalent results
hydroxyethylated cyclodextrin,"Inhibition of adsorption, cyclodextrin in place of α-cyclodextrin (in words)",[4],Approximately equivalent results
methylated cyclodextrin,"Inhibition of adsorption, cyclodextrin in place of α-cyclodextrin (in words)",[4],Approximately equivalent results
